The text below walks through data of patent US20250171426A1, “PYRIMIDINEDIONE-BASED COMPOUNDS AS AXL, C-MET, AND MER INHIBITORS AND METHODS OF USE THEREOF” (CMG Pharmaceutical Co., Ltd., priority 2022, published 2025).

Holding throughout (type): biochemical
What all share (settings): 10 μM ATP, 60 min, ADP-GLO luminescence

In one experiment the target is T1, AXL (Homo sapiens, UniProt P30530).
T1 sequence (P30530 26-894): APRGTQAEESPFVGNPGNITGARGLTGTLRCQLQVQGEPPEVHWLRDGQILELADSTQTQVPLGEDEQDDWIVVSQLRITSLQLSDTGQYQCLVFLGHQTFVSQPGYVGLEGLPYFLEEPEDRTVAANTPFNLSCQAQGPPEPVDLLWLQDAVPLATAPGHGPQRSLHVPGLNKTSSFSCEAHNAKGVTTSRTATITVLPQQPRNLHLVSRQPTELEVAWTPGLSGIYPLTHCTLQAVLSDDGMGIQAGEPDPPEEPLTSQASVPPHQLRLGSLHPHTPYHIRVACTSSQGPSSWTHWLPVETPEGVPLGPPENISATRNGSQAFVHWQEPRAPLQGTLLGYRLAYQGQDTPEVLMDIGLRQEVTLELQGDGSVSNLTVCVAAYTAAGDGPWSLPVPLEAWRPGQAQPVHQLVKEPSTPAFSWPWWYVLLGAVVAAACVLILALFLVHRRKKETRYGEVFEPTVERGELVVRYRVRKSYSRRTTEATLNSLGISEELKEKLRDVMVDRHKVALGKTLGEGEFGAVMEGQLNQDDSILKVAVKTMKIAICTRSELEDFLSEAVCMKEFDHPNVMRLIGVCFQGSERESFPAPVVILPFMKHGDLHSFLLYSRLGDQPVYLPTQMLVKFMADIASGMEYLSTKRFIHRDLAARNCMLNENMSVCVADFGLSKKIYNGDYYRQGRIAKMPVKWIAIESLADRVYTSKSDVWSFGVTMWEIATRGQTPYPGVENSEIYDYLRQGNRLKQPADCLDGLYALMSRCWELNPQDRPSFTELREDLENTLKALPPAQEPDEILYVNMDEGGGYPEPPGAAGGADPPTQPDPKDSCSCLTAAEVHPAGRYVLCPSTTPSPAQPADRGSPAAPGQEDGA
The experiment is described as follows: Enzymatic assay (ADP-Glo kinase reaction), AXL. The protocol: (§1) All the kinase reactions were performed in 5 μL using tyrosine kinase buffer with 0.2 μg/μL poly (Glu4, Tyr1) substrate, 10 μM ATP, serial dilution of the inhibitor, and incubated at room temperature for 60 min. After the indicated incubation times, 5 μL ADP-GLO™ reagent (Promega, Madison, WI) was added to the reactions and the plate was incubated at room temperature for 40 min. […] All 384-well assay plates were read using a GLOMAX™ Discover Microplate Luminometer from Promega (Madison, WI). To plot, analyze the data and calculate all kinase reaction biochemical values, both Microsoft Excel and Prism from GraphPad 7 Software (La Jolla, CA) were used.

Another experiment deals with c-MET (Homo sapiens, UniProt P08581). In words: Enzymatic assay (ADP-Glo kinase reaction), c-MET. The protocol:
as §1

Another experiment addresses T2, MER (Homo sapiens, UniProt Q12866).
T2 sequence (Q12866 21-999): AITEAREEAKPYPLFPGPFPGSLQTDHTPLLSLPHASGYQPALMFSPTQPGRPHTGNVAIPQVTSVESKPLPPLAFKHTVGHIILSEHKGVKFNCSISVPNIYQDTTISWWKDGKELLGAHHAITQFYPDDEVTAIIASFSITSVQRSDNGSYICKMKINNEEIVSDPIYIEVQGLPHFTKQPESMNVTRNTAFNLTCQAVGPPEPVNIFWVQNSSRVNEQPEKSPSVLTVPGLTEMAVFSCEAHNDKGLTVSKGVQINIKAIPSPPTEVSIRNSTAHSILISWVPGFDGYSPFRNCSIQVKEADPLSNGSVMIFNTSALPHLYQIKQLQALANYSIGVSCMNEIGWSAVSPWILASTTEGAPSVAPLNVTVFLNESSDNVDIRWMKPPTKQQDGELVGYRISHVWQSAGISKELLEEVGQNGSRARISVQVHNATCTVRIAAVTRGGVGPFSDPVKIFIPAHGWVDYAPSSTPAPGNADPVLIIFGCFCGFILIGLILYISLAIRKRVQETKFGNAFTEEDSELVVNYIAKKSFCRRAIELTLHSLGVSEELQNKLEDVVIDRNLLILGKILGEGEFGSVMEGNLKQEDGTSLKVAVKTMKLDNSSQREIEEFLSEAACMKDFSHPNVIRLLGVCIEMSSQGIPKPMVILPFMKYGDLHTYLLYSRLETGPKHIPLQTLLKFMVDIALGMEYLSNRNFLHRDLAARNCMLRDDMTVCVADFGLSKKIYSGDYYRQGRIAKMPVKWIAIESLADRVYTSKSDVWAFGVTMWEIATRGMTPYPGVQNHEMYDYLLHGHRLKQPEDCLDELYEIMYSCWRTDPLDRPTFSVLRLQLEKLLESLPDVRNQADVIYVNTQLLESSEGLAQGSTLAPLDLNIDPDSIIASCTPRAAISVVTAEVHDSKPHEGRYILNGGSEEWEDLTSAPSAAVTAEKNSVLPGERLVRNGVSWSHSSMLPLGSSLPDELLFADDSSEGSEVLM
The experiment is described as follows: Enzymatic assay (ADP-Glo kinase reaction), MER. The protocol:
(§2) All the kinase reactions were performed in 5 μL using tyrosine kinase buffer with 0.2 μg/μL poly (Glu4, Tyr1) substrate, 10 μM ATP, serial dilution of the inhibitor, and incubated at room temperature for 60 min. After the indicated incubation times, 5 μL ADP-GLO™ reagent (Promega, Madison, WI) was added to the reactions and the plate was incubated at room temperature for 40 min. Then, 10 μL of kinase detection reagent was added and after an incubation time of 40 min, luminescence was recorded and IC50 values were determined (Table 1). All 384-well assay plates were read using a GLOMAX™ Discover Microplate Luminometer from Promega (Madison, WI). To plot, analyze the data and calculate all kinase reaction biochemical values, both Microsoft Excel and Prism from GraphPad 7 Software (La Jolla, CA) were used.
as §2, with “3).” for “1).”

Structures are written as SMILES.

Sequence of c-MET (P08581 25-1390): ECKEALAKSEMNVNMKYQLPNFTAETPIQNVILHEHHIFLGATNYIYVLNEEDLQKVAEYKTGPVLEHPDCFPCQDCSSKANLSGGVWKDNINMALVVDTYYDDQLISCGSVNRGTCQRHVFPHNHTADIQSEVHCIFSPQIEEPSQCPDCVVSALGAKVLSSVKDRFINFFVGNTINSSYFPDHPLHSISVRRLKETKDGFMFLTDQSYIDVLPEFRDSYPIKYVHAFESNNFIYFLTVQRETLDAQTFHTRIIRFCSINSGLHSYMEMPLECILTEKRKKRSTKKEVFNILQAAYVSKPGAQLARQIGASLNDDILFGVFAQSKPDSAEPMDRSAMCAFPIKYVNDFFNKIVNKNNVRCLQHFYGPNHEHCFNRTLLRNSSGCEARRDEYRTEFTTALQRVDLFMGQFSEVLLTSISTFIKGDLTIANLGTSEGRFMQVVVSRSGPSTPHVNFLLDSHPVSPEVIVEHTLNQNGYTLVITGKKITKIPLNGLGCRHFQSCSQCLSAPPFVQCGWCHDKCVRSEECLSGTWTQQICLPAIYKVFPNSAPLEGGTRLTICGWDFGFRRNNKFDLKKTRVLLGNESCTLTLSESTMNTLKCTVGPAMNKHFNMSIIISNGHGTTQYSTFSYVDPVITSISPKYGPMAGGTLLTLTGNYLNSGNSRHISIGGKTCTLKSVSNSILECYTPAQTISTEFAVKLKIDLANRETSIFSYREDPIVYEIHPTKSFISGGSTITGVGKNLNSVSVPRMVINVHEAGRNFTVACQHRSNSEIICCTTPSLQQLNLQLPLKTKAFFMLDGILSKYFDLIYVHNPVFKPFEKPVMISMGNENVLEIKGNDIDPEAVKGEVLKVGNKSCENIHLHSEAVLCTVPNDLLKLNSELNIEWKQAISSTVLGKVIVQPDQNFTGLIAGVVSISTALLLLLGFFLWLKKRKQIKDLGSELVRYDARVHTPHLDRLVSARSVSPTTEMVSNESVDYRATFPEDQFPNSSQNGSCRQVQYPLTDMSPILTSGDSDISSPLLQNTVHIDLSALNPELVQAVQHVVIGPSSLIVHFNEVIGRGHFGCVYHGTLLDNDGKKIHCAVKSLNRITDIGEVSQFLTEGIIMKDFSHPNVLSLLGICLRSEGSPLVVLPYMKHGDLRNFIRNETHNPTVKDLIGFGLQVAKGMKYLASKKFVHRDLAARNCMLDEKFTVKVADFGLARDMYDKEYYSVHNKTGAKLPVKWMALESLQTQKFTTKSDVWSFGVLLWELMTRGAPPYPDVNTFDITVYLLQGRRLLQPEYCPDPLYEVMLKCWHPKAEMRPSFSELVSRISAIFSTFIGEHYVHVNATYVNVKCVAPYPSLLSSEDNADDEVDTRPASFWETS

Take `CC(C)n1cc(C(=O)Nc2ccc(Oc3ccnc(N)c3C#CC(=O)N3CCNCC3)c(F)c2)c(=O)n(-c2ccc(F)cc2)c1=O` [Example 1, N-(4-(2-amino-3-(3-oxo-3-(piperazin-1-yl)prop-1-ynyl)pyridin-4-yloxy)-3-fluorophenyl)-3-(4-fluorophenyl)-1-isopropyl-2,4-dioxo-1,2,3,4-tetrahydropyrimidine-5-carboxamide]: the half-inhibitory concentration (IC50) at AXL, at c-MET and against MER was under 10 nM each time.

Consider `COCCN1CCN(C(=O)C#Cc2c(Oc3ccc(NC(=O)c4cn(C(C)C)c(=O)n(-c5ccc(F)cc5)c4=O)cc3F)ccnc2N)CC1` [Example 2, N-(4-(2-amino-3-(3-(4-(2-methoxyethyl)piperazin-1-yl)-3-oxoprop-1-ynyl)pyridin-4-yloxy)-3-fluorophenyl)-3-(4-fluorophenyl)-1-isopropyl-2,4-dioxo-1,2,3,4-teterahydropyrimidine-5-carboxamide], for which the concentration for half-maximal inhibition (IC50) against AXL, on c-MET and at MER was under 10 nM each time.

Turning to `CC(C)n1cc(C(=O)Nc2ccc(Oc3ccnc(N)c3/C=C/C(=O)N3CCNCC3)c(F)c2)c(=O)n(-c2ccc(F)cc2)c1=O` [Example 3, (E)-N-(4-(2-amino-3-(3-oxo-3-(piperazin-1-yl)prop-1-enyl)pyridin-4-yloxy)-3-fluorophenyl)-3-(4-fluorophenyl)-1-isopropyl-2,4-dioxo-1,2,3,4-tetrahydropyrimidine-5-carboxamide], the IC50 was under 10 nM against AXL, under 100 nM on c-MET and under 10 nM against MER.

On to `COCCN1CCN(C(=O)/C=C/c2c(Oc3ccc(NC(=O)c4cn(C(C)C)c(=O)n(-c5ccc(F)cc5)c4=O)cc3F)ccnc2N)CC1` [Example 4, (E)-N-(4-(2-amino-3-(3-(4-(2-methoxyethyl)piperazin-1-yl)-3-oxoprop-1-enyl)pyridin-4-yloxy)-3-fluorophenyl)-3-(4-fluorophenyl)-1-isopropyl-2,4-dioxo-1,2,3,4-tetrahydropyrimidine-5-carboxamide], for which the half-inhibitory concentration (IC50) against AXL, on c-MET and on MER was under 10 nM each time.

Take `CC(C)n1cc(C(=O)Nc2ccc(Oc3ccnc(N)c3C#N)c(F)c2)c(=O)n(-c2ccc(F)cc2)c1=O` [Example 5, N-(4-(2-amino-3-cyanopyridin-4-yloxy)-3-fluorophenyl)-3-(4-fluorophenyl)-1-isopropyl-2,4-dioxo-1,2,3,4-tetrahydropyrimidine-5-carboxamide]: the half-maximal inhibitory concentration (IC50) at AXL, against c-MET and on MER was under 10 nM throughout.

In turn, `CC(C)n1cc(C(=O)Nc2ccc(Oc3ccnc(N)c3Cl)c(F)c2)c(=O)n(-c2ccc(F)cc2)c1=O` [Example 6, N-(4-(2-amino-3-chloropyridin-4-yloxy)-3-fluorophenyl)-3-(4-fluorophenyl)-1-isopropyl-2,4-dioxo-1,2,3,4-tetrahydropyrimidine-5-carboxamide] yielded a half-inhibitory concentration (IC50) against MER of under 100 nM.

For the molecule `CC(C)n1cc(C(=O)Nc2ccc(Oc3ccnc(N)c3-c3cnn(C)c3)c(F)c2)c(=O)n(-c2ccc(F)cc2)c1=O` [Example 7], the figures for the IC50 at AXL, at c-MET and against MER were under 10 nM, under 10 nM and under 100 nM, respectively.

`CC(C)n1cc(C(=O)Nc2ccc(Oc3ccnc(N)c3C#Cc3ccccn3)c(F)c2)c(=O)n(-c2ccc(F)cc2)c1=O` [Example 9, N-(4-(2-amino-3-(pyridin-2-ylethnyl)pyridin-4-yloxy)-3-fluorophenyl)-3-(4-fluorophenyl)-1-isopropyl-2,4-dioxo-1,2,3,4-tetrahydropyrimidine-5-carboxamide]: the IC50 against AXL was under 10 nM; at c-MET, under 10 nM; against MER, under 100 nM.

Take `CC(C)n1cc(C(=O)Nc2ccc(Oc3ccnc(N)c3-c3ccc(Oc4ccccc4)cc3)c(F)c2)c(=O)n(-c2ccc(F)cc2)c1=O` [Example 10]: the concentration for half-maximal inhibition (IC50) against AXL is under 100 nM; at c-MET it was under 10000 nM; at MER, under 10 nM.

In the case of `Cc1noc(C)c1-c1c(Oc2ccc(NC(=O)c3cn(C(C)C)c(=O)n(-c4ccc(F)cc4)c3=O)cc2F)ccnc1N` [Example 11], the concentration for half-maximal inhibition (IC50) is under 100 nM against AXL, under 10000 nM at c-MET and under 10 nM at MER.

Regarding `CCCn1cc(-c2c(Oc3ccc(NC(=O)c4cn(C(C)C)c(=O)n(-c5ccc(F)cc5)c4=O)cc3F)ccnc2N)cn1` [Example 12, N-(4-(2-amino-3-(1-propyl-1H-pyrazol-4-yl)pyridine-4-yloxy)-3-fluorophenyl)-3-(4-fluorophenyl)-1-isopropyl-2,4-dioxo-1,2,3,4-tetrahydropyrimidine-5-carboxamide], the IC50 is under 1000 nM against AXL, under 10000 nM against c-MET and under 1000 nM against MER.

Take `CCCn1cc(C#Cc2c(Oc3ccc(NC(=O)c4cn(C(C)C)c(=O)n(-c5ccc(F)cc5)c4=O)cc3F)ccnc2N)cn1` [Example 13, N-(4-(2-amino-3-((1-propyl-1H-pyrazol-4-yl)ethynyl)pyridin-4-yloxy)-3-fluorophenyl)-3-(4-fluorophenyl)-1-isopropyl-2,4-dioxo-1,2,3,4-tetrahydropyrimidine-5-carboxamide]: the values for the 50% inhibitory concentration (IC50) at AXL, against c-MET and against MER were under 10 nM, under 1000 nM and under 10 nM, respectively.

As to `CC(C)n1cc(C(=O)Nc2ccc(Oc3ccnc(N)c3C#CCN3CCOCC3)c(F)c2)c(=O)n(-c2ccc(F)cc2)c1=O` [Example 24, N-(4-(2-amino-3-(3-morpholinoprop-1-ynyl)pyridin-4-yloxy)-3-fluorophenyl)-3-(4-fluorophenyl)-1-isopropyl-2,4-dioxo-1,2,3,4-tetrahydropyrimidine-5-carboxamide], the IC50 against AXL and against c-MET was under 10 nM each time.
